Test results reported in paper PMC5740381 (Antimicrobial Agents and Chemotherapy, 2017).
Where two headings read alike, the source gives them in different places.

Columns and labels:
GT1a H77 / 1a Wild type [1] = target: T1, GT1a H77 / 1a Wild type (Hepatitis C virus (isolate H77), UniProt P27958); test: cell-based; design: species or system Huh-7; conditions: SD, n = 3; read-out: HCV stable replicons in 0% human plasma, Mean EC50 ± SD
T1 construct: in subgenomic replicon
Text: (§1) Five of these nine cell lines have been described previously, including those transfected with genotypes 1a H77, 1b Con1, 3a, 4a, and 6a ([28]). […] The genotype 2b and 6e NS3 sequences were each synthetically constructed based on a consensus sequence derived from the alignment of 15 genotype 2b and 4 genotype 6e sequences, respectively. All replicon constructs were bicistronic subgenomic replicons similar to those described by Bartenschlager and coworkers, and the replicon cell lines were generated by introducing these constructs into cells of an Huh-7 human hepatoma-derived cell line ([50]). The inhibitory effect of the PIs on HCV replication in replicon cells was determined in Dulbecco's modified Eagle medium containing 5% fetal bovine serum with or without 40% human plasma (Bioreclamation, Westbury, NY). The EC50s were determined using nonlinear regression curve fitting as described previously ([33]).

GT1b Con1 / 1b Wild type [2] = target: T2, GT1b Con1 / 1b Wild type (Hepatitis C virus (isolate Con1), UniProt Q9WMX2); test: cell-based; design: species or system Huh-7; conditions: SD, n = 3; read-out: HCV stable replicons in 0% human plasma, Mean EC50 ± SD
T2 construct: in subgenomic replicon
Text: as §1

1b V55A = target: T3, 1b V55A (Hepatitis C virus (isolate Con1), UniProt Q9WMX2, V1081A); test: Luciferase assay of HCV replication in transient-transfection replicons with wild-type or substituted NS3 (at least 3 transfections).; type: cell-based, Huh-7; conditions: SD, n = 3
T3 construct: in transient replicon
Description: (§2) Mutagenesis was performed using a Change-IT multiple-mutation site-directed mutagenesis kit (USB, Cleveland, OH) or by cloning a synthesized DNA fragment encoding the amino acid substitution(s). The genotype 1a and 1b replicon shuttle vectors used for the introduction of the substitutions of interest in the NS3, NS5A, or NS5B gene for transient-transfection assays have been described previously ([28], [33]). The replicon shuttle vectors used for the introduction of substitutions in NS3 genes from other genotypes were similar to the stable replicon cell line constructs described above, except for the absence of the neo gene. After mutagenesis, the plasmids were linearized and RNA was transcribed and then used to transfect Huh-7 cells. Inhibition of HCV replication by the HCV inhibitors was measured by luciferase assay, as described above. Replication efficiency was calculated as a percentage of wild-type replication, as described previously ([28]).

1b T54A = target: T4, 1b T54A (Hepatitis C virus (isolate Con1), UniProt Q9WMX2, T1080A); test: as above; type: cell-based, Huh-7; conditions: SD, n = 3
T4 construct: in transient replicon
Description: as §2

1a D168E = target: T5, 1a D168E (Hepatitis C virus (isolate H77), UniProt P27958, D1194E); test: as above; type: cell-based, Huh-7; conditions: SD, n = 3
T5 construct: in transient replicon
Description: as §2

1b A156T = target: T6, 1b A156T (Hepatitis C virus (isolate Con1), UniProt Q9WMX2, A1182T); test: as above; type: cell-based, Huh-7; conditions: SD, n = 3
T6 construct: in transient replicon
Description: as §2

1a D168V = target: T7, 1a D168V (Hepatitis C virus (isolate H77), UniProt P27958, D1194V); test: as above; type: cell-based, Huh-7; conditions: SD, n = 3
T7 construct: in transient replicon
Description: as §2

1a A156T = target: T8, 1a A156T (Hepatitis C virus (isolate H77), UniProt P27958, A1182T); test: as above; type: cell-based, Huh-7; conditions: SD, n = 3
T8 construct: in transient replicon
Description: as §2

1b R155K = target: T9, 1b R155K (Hepatitis C virus (isolate Con1), UniProt Q9WMX2, R1181K); test: as above; type: cell-based, Huh-7; conditions: SD, n = 3
T9 construct: in transient replicon
Description: as §2

1a F43L = target: T10, 1a F43L (Hepatitis C virus (isolate H77), UniProt P27958, F1069L); test: as above; type: cell-based, Huh-7; conditions: SD, n = 3
T10 construct: in transient replicon
Description: as §2

1b A156V = target: T11, 1b A156V (Hepatitis C virus (isolate Con1), UniProt Q9WMX2, A1182V); test: as above; type: cell-based, Huh-7; conditions: SD, n = 3
T11 construct: in transient replicon
Description: as §2

1b D168A = target: T12, 1b D168A (Hepatitis C virus (isolate Con1), UniProt Q9WMX2, D1194A); test: as above; type: cell-based, Huh-7; conditions: SD, n = 3
T12 construct: in transient replicon
Description: as §2

1b D168E = target: T13, 1b D168E (Hepatitis C virus (isolate Con1), UniProt Q9WMX2, D1194E); test: as above; type: cell-based, Huh-7; conditions: SD, n = 3
T13 construct: in transient replicon
Description: as §2

1a Y56H = target: T14, 1a Y56H (Hepatitis C virus (isolate H77), UniProt P27958, Y1082H); test: as above; type: cell-based, Huh-7; conditions: SD, n = 3
T14 construct: in transient replicon
Description: as §2

5a D168H = target: T15, 5a D168H (Hepatitis C virus SA13, UniProt O91936, D1195H); test: as above; type: cell-based, Huh-7; conditions: SD, n = 3
T15 construct: in genotype 2a JFH-1 chimeric transient replicon
Description: as §2

1a T54S = target: T16, 1a T54S (Hepatitis C virus (isolate H77), UniProt P27958, T1080S); test: as above; type: cell-based, Huh-7; conditions: SD, n = 3
T16 construct: in transient replicon
Description: as §2

2a D168E = target: T17, 2a D168E (Hepatitis C virus JFH-1, UniProt Q99IB8, D1198E); test: as above; type: cell-based, Huh-7; conditions: SD, n = 3
T17 construct: in transient replicon
Description: as §2

1a V36M = target: T18, 1a V36M (Hepatitis C virus (isolate H77), UniProt P27958, V1062M); test: as above; type: cell-based, Huh-7; conditions: SD, n = 3
T18 construct: in transient replicon
Description: as §2

1b V170A = target: T19, 1b V170A (Hepatitis C virus (isolate Con1), UniProt Q9WMX2, V1196A); test: as above; type: cell-based, Huh-7; conditions: SD, n = 3
T19 construct: in transient replicon
Description: as §2

1a Q80K = target: T20, 1a Q80K (Hepatitis C virus (isolate H77), UniProt P27958, Q1106K); test: as above; type: cell-based, Huh-7; conditions: SD, n = 3
T20 construct: in transient replicon
Description: as §2

1a V55I = target: T21, 1a V55I (Hepatitis C virus (isolate H77), UniProt P27958, V1081I); test: as above; type: cell-based, Huh-7; conditions: SD, n = 3
T21 construct: in transient replicon
Description: as §2

2a D168A = target: T22, 2a D168A (Hepatitis C virus JFH-1, UniProt Q99IB8, D1198A); test: as above; type: cell-based, Huh-7; conditions: SD, n = 3
T22 construct: in transient replicon
Description: as §2

2a A156T = target: T23, 2a A156T (Hepatitis C virus JFH-1, UniProt Q99IB8, A1186T); test: as above; type: cell-based, Huh-7; conditions: SD, n = 3
T23 construct: in transient replicon
Description: as §2

2a D168V = target: T24, 2a D168V (Hepatitis C virus JFH-1, UniProt Q99IB8, D1198V); test: as above; type: cell-based, Huh-7; conditions: SD, n = 3
T24 construct: in transient replicon
Description: as §2

1b D168V = target: T25, 1b D168V (Hepatitis C virus (isolate Con1), UniProt Q9WMX2, D1194V); test: as above; type: cell-based, Huh-7; conditions: SD, n = 3
T25 construct: in transient replicon
Description: as §2

1a D168A = target: T26, 1a D168A (Hepatitis C virus (isolate H77), UniProt P27958, D1194A); test: as above; type: cell-based, Huh-7; conditions: SD, n = 3
T26 construct: in transient replicon
Description: as §2

1a R155K = target: T27, 1a R155K (Hepatitis C virus (isolate H77), UniProt P27958, R1181K); test: as above; type: cell-based, Huh-7; conditions: SD, n = 3
T27 construct: in transient replicon
Description: as §2

5a D168E = target: T28, 5a D168E (Hepatitis C virus SA13, UniProt O91936, D1195E); test: as above; type: cell-based, Huh-7; conditions: SD, n = 3
T28 construct: in genotype 2a JFH-1 chimeric transient replicon
Description: as §2

2a A156V = target: T29, 2a A156V (Hepatitis C virus JFH-1, UniProt Q99IB8, A1186V); test: as above; type: cell-based, Huh-7; conditions: SD, n = 3
T29 construct: in transient replicon
Description: as §2

GT1a H77 / 1a Wild type [3] = target: T1, GT1a H77 / 1a Wild type; test: cell-based; design: species or system Huh-7; conditions: SD, n = 3
Description: as §2

GT1b Con1 / 1b Wild type [4] = target: T2, GT1b Con1 / 1b Wild type; test: cell-based; design: species or system Huh-7; conditions: SD, n = 3
Description: as §2

Cc1cnc(C(=O)N[C@H]2CCCCC/C=C\[C@@H]3C[C@@]3(C(=O)NS(=O)(=O)C3CC3)NC(=O)[C@@H]3C[C@@H](Oc4nc5ccccc5c5ccccc45)CN3C2=O)cn1 [Paritaprevir, paritaprevir (ABT-450)]
EC50 (GT1a H77 / 1a Wild type [1]): 1 ± 0.33 nM
EC50 (GT1b Con1 / 1b Wild type [2]): 0.21 ± 0.07 nM
EC50 (1b V55A): 0.07 ± 0.001 nM
EC50 (1b T54A): 0.09 ± 0.01 nM
EC50 (1a D168E): 20 ± 0.7 nM
EC50 (1b A156T): 0.81 ± 0.13 nM
EC50 (1a D168V): 135 ± 21 nM
EC50 (1a A156T): 24 ± 3 nM
EC50 (1b R155K): 4.4 ± 0.1 nM
EC50 (1a F43L): 27 ± 12 nM
EC50 (1b A156V): 2.3 ± 0.53 nM
EC50 (1b D168A): 3 ± 0.2 nM
EC50 (1b D168E): 0.48 ± 0.05 nM
EC50 (1a Y56H): 4.1 ± 1.1 nM
EC50 (5a D168H): 184 ± 65 nM
EC50 (1a T54S): 0.54 ± 0.01 nM
EC50 (2a D168E): 89 ± 15 nM
EC50 (1a V36M): 3 ± 0.3 nM
EC50 (1b V170A): 0.09 ± 0.03 nM
EC50 (1a Q80K): 3.9 ± 0.3 nM
EC50 (1a V55I): 1.4 ± 0.14 nM
EC50 (2a D168A): 306 ± 34 nM
EC50 (2a A156T): 29 ± 2.8 nM
EC50 (2a D168V): 228 ± 32 nM
EC50 (1b D168V): 17 ± 2 nM
EC50 (1a D168A): 70 ± 9 nM
EC50 (1a R155K): 51 ± 8 nM
EC50 (5a D168E): 7.7 ± 1.7 nM
EC50 (2a A156V): 37 ± 1.2 nM
EC50 (GT1a H77 / 1a Wild type [3]): 1.4 ± 0.4 nM
EC50 (GT1b Con1 / 1b Wild type [4]): 0.11 ± 0.05 nM
